Literature values as cited in US10588873B2, “Topical antifungal compositions” (Exodos Life Sciences LP, priority 2015, dated 2020).

Conditions: only or first printed pKa

| Compound | pKa |
| --- | --- |
| CCCCCC(=O)O [caproic (hexanoic) acid] | 4.88 |
| CC(=O)CCC(=O)O [levulinic acid] | 4.6 |
